Results from US9028845B2, “Chimeric immunomodulatory compounds and methods of using the same-IV” (Dynavax Technologies Corporation, priority 2001, dated 2015).

What was measured:
human PBMCs = assay: Human PBMC cytokine response assay (IFN-γ and IFN-α in cell-free medium by ELISA), with or without cPLGA; assay type: cell-based;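 for IFN-α (pg/ml) mean: 20 µg/mL compound for 24 hours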;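 for IFN-γ (pg/ml) mean: 20 µg/mL compound for 24 hours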
mouse splenocytes = assay: Mouse splenocyte cytokine secretion (IL-6, IL-12, IFN by ELISA); assay type: cell-based, BALB/c mice; design: IFN: unit not given beside the values; settings: 24 h
Protocol: Polynucleotides and chimeric compounds were tested for immunostimulatory activity on mouse splenocytes. Immunostimulation was assessed by measurement of cytokine secretion into the culture media. Cytokine levels in the culture supernatant were determined by enzyme-linked immunosorbent assay (ELISA) tests.
Cells were isolated and prepared using standard techniques. Spleens of 8 to 20 week-old BALB/c mice were harvested and the splenocytes isolated using standard teasing and treatment with ACK lysing buffer from BioWhittaker, Inc. Four spleens were pooled in this experiment. Isolated cells were washed in RPMI 1640 media supplemented with 2% heat-inactivated fetal calf serum (FCS), 50 μM 2-mercaptoethanol, 1% penicillin-streptomycin, and 2 mM L-glutamine and resuspended at approximately […] in 10% FCS/RPMI (RPMI 1640 media with 10% heat-inactivated FCS, 50 μM 2-mercaptoethanol, 1% penicillin-streptomycin, and 2 mM L-glutamine).
Cell cultures were set up in triplicate with approximately 7×10^5 cells/well in a 96-well flat microtiter plate in 100 μl 10% FCS/RPMI with the cells allowed to rest for at lest 1 hour after plating. The indicated test compounds were incubated (at the indicated concentrations) for 24 hours at 37° C. Cell supernatants were harvested and frozen at −80° C. Cytokine production by the cells was determined by ELISAs, as shown in 19.

CD19+ B cells = assay: Human B cell proliferation assay (3H-thymidine incorporation); settings: 2 μg/ml; for cpm1 / cpm2 / cpm3 / mean cpm / mean of both: B cells
Protocol: Purified human B cells from 2 donors were stimulated with 5 μg/ml P-6 or CIC for 96 h. Proliferation was assessed by ^3H-thymidine incorporation.
A CIC is considered to induce “little” human B cell proliferation if B cell proliferation in the presence of the CIC is between greater than 15 to about 30% of P-6.
Human PBMCs were isolated from heparanized blood from two normal subjects. Some PBMCs were held in reserve while the remainder was incubated with CD19+ MACS beads (Miltenyi Biotec). These cells were then passed through a magnet, separating the CD19+ B cells through positive selection. […] B cells were then cultured at 1×10^5/200 μl/well in 96-well round-bottomed plates. In some cases, PBMCs were also cultured, but at 2×10^5/200 μl/well. Cells were stimulated in triplicate with 2 μg/ml polynucleotide or CIC. The culture period was 48 hours at 37° C. At the end of the culture period, the plates were pulsed with ^3H-thymidine, 1 μCi/well, and incubated for an additional 8 hours. Then the plates were harvested using standard liquid scintillation techniques and data was collected in counts per minutes (cpm).

PBMCs = assay: Human PBMC proliferation assay (3H-thymidine incorporation); assay type: cell-based; settings: Experiment A; for mean cpm: 2 μg/ml
[1] = Donor 5, 20 μg/ml (mixtures: 20 μg/ml total), 24 h
[2] = Donor 6, 20 μg/ml (mixtures: 20 μg/ml total), 24 h
[3] = mean of Donors 1-2, 20 μg/ml, 24 h
[4] = mean of Donors 5-6, 20 μg/ml (mixtures: 20 μg/ml total), 24 h
[5] = mean of Donors 7-8, 20 μg/ml, 24 h
[6] = mean of donors 121 and 194, Experiment B
[7] = Table 24, mean of donors 28234-28237
[8] = donor 28066, 20 ug/ml, 24 h, + PLGA = premixed with 100 μg/ml cPLGA
[9] = donor 28067, 20 ug/ml, 24 h, + PLGA = premixed with 100 μg/ml cPLGA
[10] = donor 28068, 20 ug/ml, 24 h, + PLGA = premixed with 100 μg/ml cPLGA
[11] = mean of donors 110, 112, 119, 120, Table 14
[12] = mean of donors 28065-28068, 20 ug/ml, 24 h, + PLGA = premixed with 100 μg/ml cPLGA
[13] = mean of donors 28185-28188, Table 15

In the case of “5′-TCGTCG-3′- C3-5′-ACGTTCG-3′-C3-5′-AGATGAT-3′ [Compound C-11]”, the “IFN-α (pg/ml) Donor 1” value (human PBMCs; Donor 1, 20 μg/ml, 24 h) is reported as 119 pg/mL, the “IFN-γ (pg/ml) Donor 1” value (human PBMCs; Donor 1, 20 μg/ml, 24 h) is reported as 2308 pg/mL and the “IFN-α (pg/ml) Donor 2” value (human PBMCs; Donor 2, 20 μg/ml, 24 h) is reported as 0 pg/mL. For the same substance, the “IFN-γ (pg/ml) Donor 2” value (human PBMCs; Donor 2, 20 μg/ml, 24 h) was 270 pg/mL, the “IFN-α (pg/ml) Donor 5” value (human PBMCs; [1]) was 76 pg/mL and the “IFN-γ (pg/ml) Donor 5” value (human PBMCs; [1]) was 25 pg/mL. For the same substance, the “IFN-α (pg/ml) Donor 6” value (human PBMCs; [2]) was 175 pg/mL, the “IFN-γ (pg/ml) Donor 6” value (human PBMCs; [2]) was 792 pg/mL and the “IFN-α (pg/ml) Donor 7” value (human PBMCs; Donor 7, 20 μg/ml, 24 h) was 6 pg/mL. The “IFN-γ (pg/ml) Donor 7” value (human PBMCs; Donor 7, 20 μg/ml, 24 h) was 5 pg/mL, the “IFN-α (pg/ml) Donor 8” value (human PBMCs; Donor 8, 20 μg/ml, 24 h) was 56 pg/mL and the “IFN-γ (pg/ml) Donor 8” value (human PBMCs; Donor 8, 20 μg/ml, 24 h) was 419 pg/mL. The “IFN-α (pg/ml) mean” value (human PBMCs; [3]) was 59 pg/mL, the “IFN-γ (pg/ml) mean” value (human PBMCs; [3]) was 1289 pg/mL and the “IFN-α (pg/ml) mean” value (human PBMCs; [4]) was 126 pg/mL. The “IFN-γ (pg/ml) mean” value (human PBMCs; [4]) was 409 pg/mL, the “IFN-α (pg/ml) mean” value (human PBMCs; [5]) was 31 pg/mL and the “IFN-γ (pg/ml) mean” value (human PBMCs; [5]) was 212 pg/mL. The “immunomodulatory activity (IFN-γ / IFN-α secretion), in words” value (human PBMCs; used alone (no cPLGA)) was “did have immunomodulatory activity”, the IFN (mouse splenocytes; dose 0.1 μg/ml) was 960 and the IL-6 (mouse splenocytes; dose 0.1 μg/ml) was 458. For the same substance, the IL-12 (mouse splenocytes; dose 0.1 μg/ml) was 3359, the IFN (mouse splenocytes; dose 1.0 μg/ml) was 3220 and the IL-6 (mouse splenocytes; dose 1.0 μg/ml) was 11814. The IL-12 (mouse splenocytes; dose 1.0 μg/ml) was 4914, the IFN (mouse splenocytes; dose 5.0 μg/ml) was 3342 and the IL-6 (mouse splenocytes; dose 5.0 μg/ml) was 10098. The IL-12 (mouse splenocytes; dose 5.0 μg/ml) was 4279, the cpm1 (CD19+ B cells; donor 121, Experiment B) was 30367 cpm and the cpm2 (CD19+ B cells; donor 121, Experiment B) was 30412 cpm. It also gave a cpm3 (CD19+ B cells; donor 121, Experiment B) of 18528 cpm, a mean cpm (CD19+ B cells; donor 121 mean, Experiment B) of 26436 cpm and a cpm1 (CD19+ B cells; donor 194, Experiment B) of 16967 cpm. It also gave a cpm2 (CD19+ B cells; donor 194, Experiment B) of 20898 cpm, a cpm3 (CD19+ B cells; donor 194, Experiment B) of 11253 cpm and a mean cpm (CD19+ B cells; donor 194 mean, Experiment B) of 16373 cpm. For the same substance, the mean of both (CD19+ B cells; [6]) was 21404 cpm.
Substance “(5′-TCGTCGA-3′)2-glycerol-5′-TCGTCGA-3′ [Compound C-28]” has an IFN-α (human PBMCs; Table 9, donor 28089) of 0 pg/mL, an IFN-γ (human PBMCs; Table 9, donor 28089) of 14 pg/mL and an IFN-α (human PBMCs; Table 9, donor 28090) of 64 pg/mL. The IFN-γ (human PBMCs; Table 9, donor 28090) was 15 pg/mL, the IFN-α (human PBMCs; Table 9, donor 28098) was 42 pg/mL and the IFN-γ (human PBMCs; Table 9, donor 28098) was 183 pg/mL. The IFN-α (human PBMCs; Table 9, donor 28099) was 67 pg/mL, the IFN-γ (human PBMCs; Table 9, donor 28099) was 45 pg/mL and the IFN-α mean (human PBMCs; Table 9, mean of donors) was 43 pg/mL. The IFN-γ mean (human PBMCs; Table 9, mean of donors) was 64 pg/mL, the IFN-α (human PBMCs; Table 24, donor 28234) was 16 pg/mL and the IFN-γ (human PBMCs; Table 24, donor 28234) was 10 pg/mL. For the same substance, the IFN-α (human PBMCs; Table 24, donor 28235) was 16 pg/mL, the IFN-γ (human PBMCs; Table 24, donor 28235) was 14 pg/mL and the IFN-α (human PBMCs; Table 24, donor 28236) was 16 pg/mL. The IFN-γ (human PBMCs; Table 24, donor 28236) was 88 pg/mL, the IFN-α (human PBMCs; Table 24, donor 28237) was 16 pg/mL and the IFN-γ (human PBMCs; Table 24, donor 28237) was 1229 pg/mL. For the same substance, the IFN-α mean (human PBMCs; [7]) was 16 pg/mL, the IFN-γ mean (human PBMCs; [7]) was 335 pg/mL and the “IFN-α” value (human PBMCs; donor 110, Table 14) was 38 pg/mL. The “IFN-γ” value (human PBMCs; donor 110, Table 14) was 5564 pg/mL, the “IFN-α” value (human PBMCs; donor 112, Table 14) was 4 pg/mL and the “IFN-γ” value (human PBMCs; donor 112, Table 14) was 52 pg/mL. For the same substance, the “IFN-α” value (human PBMCs; donor 119, Table 14) was 56 pg/mL, the “IFN-γ” value (human PBMCs; donor 119, Table 14) was 44 pg/mL and the “IFN-α” value (human PBMCs; donor 120, Table 14) was 26 pg/mL. The “IFN-γ” value (human PBMCs; donor 120, Table 14) was 60 pg/mL, the “IFN-γ (pg/ml) 28065” value (human PBMCs; donor 28065 (high background), 20 ug/ml, 24 h, + PLGA = premixed with 100 μg/ml cPLGA, 1000 = outside assay limits) was 1082 pg/mL and the “IFN-α (pg/ml) 28065” value (human PBMCs; donor 28065, 20 ug/ml, 24 h, + PLGA = premixed with 100 μg/ml cPLGA) was 3 pg/mL. For the same substance, the “IFN-α (pg/ml) 28066” value (human PBMCs; [8]) was 0 pg/mL, the “IFN-γ (pg/ml) 28066” value (human PBMCs; [8]) was 5 pg/mL and the “IFN-α (pg/ml) 28067” value (human PBMCs; [9]) was 29 pg/mL. The “IFN-γ (pg/ml) 28067” value (human PBMCs; [9]) was 42 pg/mL, the “IFN-α (pg/ml) 28068” value (human PBMCs; [10]) was 52 pg/mL and the “IFN-γ (pg/ml) 28068” value (human PBMCs; [10]) was 410 pg/mL. The “IFN-a” value (human PBMCs; donor 28185, Table 15) was 14 pg/mL, the “IFN-g” value (human PBMCs; donor 28185, Table 15) was 162 pg/mL and the “IFN-a” value (human PBMCs; donor 28186, Table 15) was 4 pg/mL. For the same substance, the “IFN-g” value (human PBMCs; donor 28186, Table 15) was 24 pg/mL, the “IFN-a” value (human PBMCs; donor 28187, Table 15) was 0 pg/mL and the “IFN-g” value (human PBMCs; donor 28187, Table 15) was 75 pg/mL. The “IFN-a” value (human PBMCs; donor 28188, Table 15) was 4 pg/mL, the “IFN-g” value (human PBMCs; donor 28188, Table 15) was 5 pg/mL and the “IFN-α (pg/ml) mean” value (human PBMCs; [11]) was 31 pg/mL. For the same substance, the “IFN-γ (pg/ml) mean” value (human PBMCs; [11]) was 1430 pg/mL, the “IFN-α (pg/ml) mean” value (human PBMCs; [12]) was 21 pg/mL and the “IFN-γ (pg/ml) mean” value (human PBMCs; [12]) was 385 pg/mL. For the same substance, the “IFN-a (pg/ml) mean” value (human PBMCs; [13]) was 6 pg/mL, the “IFN-g (pg/ml) mean” value (human PBMCs; [13]) was 66 pg/mL and the “IFN-a (pg/ml) ×2” value (human PBMCs; mean ×2, Table 15) was 11 pg/mL. The “IFN-g (pg/ml) ×4” value (human PBMCs; mean ×4, Table 15) was 266 pg/mL, the “IFN-α induction, in words” value (human PBMCs; used alone) was “HEG (C-94)>TEG (C-103)>C3 (C-104)=no linker (C-28)” and the cpm1 (PBMCs; Donor 146, 2 μg/ml) was 94977 cpm. For the same substance, the cpm2 (PBMCs; Donor 146, 2 μg/ml) was 121595 cpm, the cpm3 (PBMCs; Donor 146, 2 μg/ml) was 84977 cpm and the mean cpm (PBMCs; Donor 146 mean) was 100516 cpm. It also gave a cpm1 (PBMCs; Donor 147, 2 μg/ml) of 103916 cpm, a cpm2 (PBMCs; Donor 147, 2 μg/ml) of 91439 cpm and a cpm3 (PBMCs; Donor 147, 2 μg/ml) of 100905 cpm. The mean cpm (PBMCs; Donor 147 mean) was 98753 cpm, the mean of both (PBMCs; mean of Donors 146 and 147, 2 μg/ml) was 99635 cpm and the “B cell proliferation, in words” value (CD19+ B cells; 48 h plus 8 h 3H-thymidine pulse) was “cause B cells to proliferate”. The cpm1 (CD19+ B cells; Donor 146, Experiment A) was 50999 cpm, the cpm2 (CD19+ B cells; Donor 146, Experiment A) was 54630 cpm and the cpm3 (CD19+ B cells; Donor 146, Experiment A) was 46418 cpm. For the same substance, the mean cpm (CD19+ B cells; Donor 146 mean, Experiment A) was 50682 cpm, the cpm1 (CD19+ B cells; Donor 147, Experiment A) was 65593 cpm and the cpm2 (CD19+ B cells; Donor 147, Experiment A) was 51040 cpm. It also gave a cpm3 (CD19+ B cells; Donor 147, Experiment A) of 50357 cpm, a mean cpm (CD19+ B cells; Donor 147 mean, Experiment A) of 55663 cpm and a cpm1 (CD19+ B cells; donor 121, Experiment B) of 35393 cpm. The cpm2 (CD19+ B cells; donor 121, Experiment B) was 26954 cpm, the cpm3 (CD19+ B cells; donor 121, Experiment B) was 26780 cpm and the mean cpm (CD19+ B cells; donor 121 mean, Experiment B) was 29709 cpm. For the same substance, the cpm1 (CD19+ B cells; donor 194, Experiment B) was 21588 cpm, the cpm2 (CD19+ B cells; donor 194, Experiment B) was 13691 cpm and the cpm3 (CD19+ B cells; donor 194, Experiment B) was 15691 cpm. It also gave a mean cpm (CD19+ B cells; donor 194 mean, Experiment B) of 16990 cpm, a mean of both (CD19+ B cells; mean of Donors 146 and 147, Experiment A) of 53173 cpm and a mean of both (CD19+ B cells; [6]) of 23350 cpm.
